The values below come from US12290521B2, “Methods and materials for identifying and treating BET inhibitor-resistant cancers” (Mayo Foundation for Medical Education and Research, priority 2018, dated 2025).

The test concerns C4-2 xenograft tumors. As to the kind of experiment: Prostate cancer xenografts in NSG mice. As to conditions: SPOP-F133V C4-2 xenografts; JQ1 50 mg/kg i.p. 5 days a week, day 21. It is filed as in vivo. As for the experimental part: 6-week-old NOD-SCID IL-2-receptor gamma null (NSG) mice were generated and randomly divided into different experimental groups as indicated. All mice were housed in standard conditions with a 12-hour light/dark cycle and access to food and water ad libitum. For BRD2/3/4 knockdown studies, C4-2 cells (5×10^6), infected with lentivirus expressing empty vector (EV) or HA-SPOP-F133V mutant in combination with control shRNA or BRD2/3/4-specific shRNA, were mixed with Matrigel (in 100 μL 1×PBS plus 100 μL Matrigel (BD Biosciences)) and injected s.c. into the right flank of mice. After xenografts reached the size of about 100 mm^3, vehicle (10% beta cyclodextrin) or JQ1 (Sigma-Aldrich) at 50 mg/kg body weight was administered by i.p. injection 5 days a week. For studies with tumors treated with JQ1 and AKT inhibitor GDC-0068, C4-2 cells (5×10^6) infected with lentivirus expressing empty vector (EV) or HA-SPOP-F133V mutant were mixed with Matrigel (in 100 μL 1×PBS plus 100 μL Matrigel (BD Biosciences)) and injected s.c. into the right flank of mice. […] Growth in tumor volume was measured in a blinded fashion using digital caliper, and tumor volumes were estimated using the formula (L×W2)/2, where L is length of tumor and W is width. The volumes of tumors were compared, and P values were determined by a two-tailed Student's t test. […]

Structures are written as SMILES.

With `Cc1sc2c(c1C)C(c1ccc(Cl)cc1)=N[C@@H](CC(=O)OC(C)(C)C)c1nnc(C)n1-2` [JQ1], the xenograft tumor growth result was “JQ1-resistance”.
